Measured values from BindingDB's records for doi:10.1016/S0960-894X(96)00483-0 (1996).

These compounds were tested against Kynureninase (Pseudomonas fluorescens) (UniProt P83788) (assay: Compound was evaluated for its binding affinity against kynureninase isolated from Pseudomonas fluorescence).
Chain of Kynureninase (Pseudomonas fluorescens) (P83788 whole entry, looked up): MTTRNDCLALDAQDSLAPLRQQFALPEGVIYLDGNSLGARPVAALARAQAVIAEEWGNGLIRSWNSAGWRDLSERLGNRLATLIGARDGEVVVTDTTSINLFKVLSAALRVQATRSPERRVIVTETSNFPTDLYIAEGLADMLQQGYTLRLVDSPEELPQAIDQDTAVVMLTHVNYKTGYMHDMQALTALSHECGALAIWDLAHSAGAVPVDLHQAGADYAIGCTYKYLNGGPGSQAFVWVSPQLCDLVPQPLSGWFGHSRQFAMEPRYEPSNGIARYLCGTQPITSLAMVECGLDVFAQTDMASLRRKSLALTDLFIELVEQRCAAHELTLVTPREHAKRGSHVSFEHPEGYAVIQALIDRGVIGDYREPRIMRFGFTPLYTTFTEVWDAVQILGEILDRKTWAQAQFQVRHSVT

Compound | Ki [µM]
Nc1ccccc1C(=O)C[C@H](N)C(=O)O [2-ammonio-4-(2-ammoniophenyl)-4-oxo-(2S)-butanoate] | 4.28
N[C@@H](CC(=O)c1ccccc1)C(=O)O [2-ammonio-4-oxo-4-phenyl-(2S)-butanoate] | 23.4
COC(=O)[C@H](CP(=O)(OC)c1ccccc1)NC(=O)OCc1ccccc1 (stereo partly drawn) [(R)-2-Benzyloxycarbonylamino-3-(methoxy-phenyl-phosphinoyl)-propionic acid methyl ester] | 8.8
COP(=O)(C[C@H](NC(=O)OCc1ccccc1)C(=O)O)c1ccccc1 (stereo partly drawn) [(R)-2-Benzyloxycarbonylamino-3-(methoxy-phenyl-phosphinoyl)-propionic acid] | 880
